Results reported in patent US8822691B2, “Pesticidal carboxamides” (Bayer CropScience AG, priority 2009, dated 2014).
Read-outs that look alike come from different tables or passages of the source.

How the values were obtained:
Type in all cases: in vivo
Aulacophora femoralis = assay: Test against cucurbit leaf beetle (Aulacophora femoralis), leaf dip; conditions: for pest or weed control at 500 ppm: Aulacophora, foliar, 168 h, read-out: insecticidal activity
Method: (§1) Unless not mentioned otherwise, the test solutions were prepared as follows:
(§2) Containing as solvent: Dimethylformamide, 3 parts by weight; and as emulsifier: Polyoxyethylene alkyl phenyl ether, 1 part by weight
(§3) To prepare the test solution, 1 part by weight of an active compound is mixed with the above-mentioned amount of solvent containing the above-mentioned amount of emulsifier, and the mixture is diluted with water to the desired concentration.
Leaves of cucumber were immersed in the test solution at the appropriate concentration, and the leaves were dried in air. The leaves were then put in a plastic cup containing sterilized black soil and five Aulacophora femoralis at second instar larvae were released in the cup. The cups were placed in a temperature-controlled chamber at 25° C. After 7 days, the number of dead larvae was counted, and thus the insecticidal activity was calculated. An insecticidal activity of 100% means that all larvae were killed, whereas an insecticidal activity of 0% means that no larva was killed.

Spodoptera litura = assay: Test against tobacco cutworm (Spodoptera litura) larvae, leaf dip; conditions: active compound concentration of 100 ppm, third instar larvae on sweet potato leaves, after 7 days; for pest or weed control at 100 ppm: foliar, 168 h, read-out: insecticidal activity
Method: as §1, §2, §3
Leaves of sweet potato were immersed in the test solution at the appropriate concentration, and the leaves were dried in air. The leaves were then placed in a petri dish having a diameter of 9 cm, and ten Spodoptera litura at third instar larvae were released therein. The petri dishes were placed in a temperature-controlled chamber at 25° C. After 2 days and 4 days more sweet potato leaves were added. After 7 days, the number of dead larvae was counted to calculate the insecticidal activity. An insecticidal activity of 100% means that all larvae were killed, whereas an insecticidal activity of 0% means that no larva was killed. In the current test, the results of two petri dishes for each treatment were averaged.

Tetranychus urticae = assay: Test against two-spotted spider mite (Tetranychus urticae), spray; conditions: for acaricidal activity: active compound concentration of 500 ppm, adult mites on kidney bean, after 7 days
Method: as §1, §2, §3
50 to 100 adult mites of Tetranychus urticae were inoculated to leaves of kidney bean at two-leaf stage planted in a pot of 6 cm in diameter. After one day, test solution at the appropriate concentration was sprayed thereon in a sufficient amount using a spray gun. After the spraying, the plant pot was placed inside a greenhouse, and after 7 days, the acaricidal activity was calculated. An acaricidal activity of 100% means that all mites were killed, whereas an acaricidal activity of 0% means that no mite was killed.

[1] = active compound concentration of 500 ppm, second instar larvae on cucumber leaves, after 7 days

Compound	insecticidal activity (Aulacophora femoralis; [1])	insecticidal activity (Spodoptera litura)	also measured
Cc1cc(C(F)(C(F)(F)F)C(F)(F)F)cc(C)c1NC(=O)c1ccc2nccc(Br)c2c1 [2-13]	100%	100%	–
Cc1cc(C(F)(C(F)(F)F)C(F)(F)F)cc(C)c1NC(=O)c1ccc2nc(Br)ccc2c1 [2-18]	100%	–	–
Cc1cc(C(F)(C(F)(F)F)C(F)(F)F)cc(C(C)C)c1NC(=O)c1ccc2c(ccc[n+]2[O-])c1 [2-36]	100%	–	–
Cc1cc(C(F)(C(F)(F)F)C(F)(F)F)cc(C(C)C)c1NC(=O)c1ccc2nc(C#N)ccc2c1 [2-37]	100%	100%	–
CC(C)c1cc(C(F)(C(F)(F)F)C(F)(F)F)cc(C(C)C)c1NC(=O)c1ccc2c(ccc[n+]2[O-])c1 [2-57]	100%	–	–
O=C(Nc1c(Cl)cc(C(F)(C(F)(F)F)C(F)(F)F)cc1Cl)c1ccc2ncccc2c1 [2-59]	100%	–	–
N#Cc1ccc2cc(C(=O)Nc3c(Cl)cc(C(F)(C(F)(F)F)C(F)(F)F)cc3Cl)ccc2n1 [2-61]	100%	100%	–
O=C(Nc1c(I)cc(C(F)(C(F)(F)F)C(F)(F)F)cc1I)c1ccc2c(ccc[n+]2[O-])c1 [2-68]	100%	100%	–
CCOC(c1cc(C)c(NC(=O)c2ccc3ncccc3c2)c(CC)c1)(C(F)(F)F)C(F)(F)F [2-72]	–	–	acaricidal activity (Tetranychus urticae): 100%
CCOC(c1cc(C)c(NC(=O)c2ccc3nc(C#N)ccc3c2)c(CC)c1)(C(F)(F)F)C(F)(F)F [2-74]	100%	100%	–
CCc1cc(C(Oc2ccc(Cl)cc2)(C(F)(F)F)C(F)(F)F)cc(C)c1NC(=O)c1ccc2ncccc2c1 [2-78]	100%	100%	–
Cc1cc(C(F)(C(F)(F)F)C(F)(F)C(F)(F)F)cc(C)c1NC(=O)c1ccc2ncccc2c1 (stereo not drawn) [2-85]	–	–	acaricidal activity (Tetranychus urticae): 100%
CCc1cc(C(F)(C(F)(F)F)C(F)(F)C(F)(F)F)cc(C)c1NC(=O)c1ccc2c(ccc[n+]2[O-])c1 (stereo not drawn) [2-89]	100%	–	–
CCCc1cc(C(F)(C(F)(F)F)C(F)(F)C(F)(F)F)cc(I)c1NC(=O)c1ccc2ncccc2c1 (stereo not drawn) [2-102]	–	100%	–
CCCc1cc(C(F)(C(F)(F)F)C(F)(F)C(F)(F)F)cc(I)c1NC(=O)c1ccc2c(ccc[n+]2[O-])c1 (stereo not drawn) [2-103]	–	100%	–
CCCc1cc(C(F)(C(F)(F)F)C(F)(F)C(F)(F)F)cc(I)c1NC(=O)c1ccc2nc(C#N)ccc2c1 (stereo not drawn) [2-104]	100%	100%	–
O=C(Nc1c(I)cc(C(F)(C(F)(F)F)C(F)(F)C(F)(F)F)cc1I)c1ccc2ncccc2c1 (stereo not drawn) [2-111]	–	100%	–
O=C(Nc1c(I)cc(C(F)(C(F)(F)F)C(F)(F)C(F)(F)F)cc1I)c1ccc2c(ccc[n+]2[O-])c1 (stereo not drawn) [2-112]	100%	–	–
N#Cc1ccc2cc(C(=O)Nc3c(I)cc(C(F)(C(F)(F)F)C(F)(F)C(F)(F)F)cc3I)ccc2n1 (stereo not drawn) [2-113]	100%	100%	–
CCc1cc(C2(F)C(F)(F)C(F)(F)C(F)(F)C(F)(F)C2(F)F)cc(C)c1NC(=O)c1ccc2ncccc2c1 [2-128]	–	100%	–
CCc1cc(C2(F)C(F)(F)C(F)(F)C(F)(F)C(F)(F)C2(F)F)cc(C)c1NC(=O)c1ccc2c(ccc[n+]2[O-])c1 [2-129]	–	100%	–
N#Cc1ccc2cc(C(=O)Nc3c(Br)cc(OC(F)(F)F)cc3Br)ccc2n1 [2-139]	100%	–	–
N#Cc1ccc2cc(C(=O)Nc3c(Br)cc(SC(F)(F)F)cc3Br)ccc2n1 [2-140]	100%	100%	–

Compound	insecticidal activity (Aulacophora femoralis; [1])	insecticidal activity (Spodoptera litura)	also measured
N#Cc1ccc2cc(C(=O)Nc3c(I)cc(C(F)(C(F)(F)F)C(F)(F)F)cc3SC(F)(F)F)ccc2n1 [2-161]	–	100%	–
CCCc1cc(C(F)(C(F)(F)F)C(F)(F)C(F)(F)F)cc(Br)c1NC(=O)c1ccc2ncccc2c1 (stereo not drawn) [2-162]	100%	100%	–
CCCc1cc(C(F)(C(F)(F)F)C(F)(F)C(F)(F)F)cc(Br)c1NC(=O)c1ccc2nc(C#N)ccc2c1 (stereo not drawn) [2-164]	100%	100%	–
CC(C)c1cc(C(F)(C(F)(F)F)C(F)(F)C(F)(F)F)cc(I)c1NC(=O)c1ccc2nc(C#N)ccc2c1 (stereo not drawn) [2-167]	100%	100%	–
O=C(Nc1c(Br)cc(C(F)(C(F)(F)F)C(F)(F)C(F)(F)F)cc1SC(F)(F)F)c1ccc2c(ccc[n+]2[O-])c1 (stereo not drawn) [2-184]	–	–	acaricidal activity (Tetranychus urticae): 100%
N#Cc1ccc2cc(C(=O)Nc3c(Br)cc(C(F)(C(F)(F)F)C(F)(F)C(F)(F)F)cc3SC(F)(F)F)ccc2n1 (stereo not drawn) [2-185]	100%	100%	–
O=C(Nc1c(I)cc(C(F)(C(F)(F)F)C(F)(F)C(F)(F)F)cc1SC(F)(F)F)c1ccc2ncccc2c1 (stereo not drawn) [2-186]	–	100%	–
O=C(Nc1c(I)cc(C(F)(C(F)(F)F)C(F)(F)C(F)(F)F)cc1SC(F)(F)F)c1ccc2c(ccc[n+]2[O-])c1 (stereo not drawn) [2-187]	–	–	acaricidal activity (Tetranychus urticae): 100%
N#Cc1ccc2cc(C(=O)Nc3c(I)cc(C(F)(C(F)(F)F)C(F)(F)C(F)(F)F)cc3SC(F)(F)F)ccc2n1 (stereo not drawn) [2-188]	100%	100%	–
Cc1cc(C(F)(C(F)(F)F)C(F)(F)Br)cc(C)c1NC(=O)c1ccc2ncccc2c1 (stereo not drawn) [2-189]	–	–	acaricidal activity (Tetranychus urticae): 100%
CCc1cc(C(F)(C(F)(F)F)C(F)(F)Br)cc(C)c1NC(=O)c1ccc2c(ccc[n+]2[O-])c1 (stereo not drawn) [2-193]	100%	–	–
O=C(Nc1c(Br)cc(C(F)(C(F)(F)F)C(F)(F)Br)cc1Br)c1ccc2ncccc2c1 (stereo not drawn) [2-195]	100%	100%	–
O=C(Nc1c(I)cc(C(F)(C(F)(F)F)C(F)(F)Br)cc1I)c1ccc2ncccc2c1 (stereo not drawn) [2-198]	–	100%	–
N#Cc1ccc2cc(C(=O)Nc3c(I)cc(C(F)(C(F)(F)F)C(F)(F)Br)cc3I)ccc2n1 (stereo not drawn) [2-200]	100%	100%	–
N#Cc1ccc2cc(C(=O)Nc3c(Br)cc(C(F)(C(F)(F)F)C(F)(F)C(F)(F)F)cc3Br)ccc2[n+]1[O-] (stereo not drawn) [2-270]	–	100%	–
CCc1cc(C(F)(C(F)(F)F)C(F)(F)C(F)(F)F)cc(C)c1NC(=O)c1ccc(N=c2ssnc2Cl)c(Br)c1 (stereo not drawn) [5-4]	–	100%	–
CCc1cc(C(F)(C(F)(F)F)C(F)(F)F)cc(C)c1NC(=O)c1ccc2cc(Br)ccc2c1 [Compound No. 1-3, 6-bromo-N-[2-ethyl-4-(1,1,1,2,3,3,3-heptafluoropropan-2-yl-2-yl)-6-methylphenyl]-2-naphthamide]	–	–	pest or weed control at 500 ppm (Tetranychus urticae; Tetranychus urticae, in Phaseolus vulgaris, 168 h, read-out: acaricidal activity): 100%
CCc1cc(C(F)(C(F)(F)F)C(F)(F)F)cc(C)c1NC(=O)c1ccc2cc(C#N)ccc2c1 [Compound No. 1-4, 6-cyano-N-[2-ethyl-4-(1,1,1,2,3,3,3-heptafluoropropan-2-yl)-6-methylphenyl]-2-naphthamide]	–	–	pest or weed control at 100 ppm (Spodoptera litura): 100%
Cc1cc(C(F)(C(F)(F)F)C(F)(F)F)cc(C)c1NC(=O)c1ccc2nc(Cl)ccc2c1 [Compound No. 2-17, 2-chloro-N-[4-(1,1,1,2,3,3,3-heptafluoropropan-2-yl)-2,6-dimethylphenyl]quinoline-6-carboxamide]	–	–	pest or weed control at 500 ppm (Aulacophora femoralis; [1]): 100%; pest or weed control at 100 ppm (Spodoptera litura): 100%
Cc1cc(C(F)(C(F)(F)F)C(F)(F)F)cc(C)c1NC(=O)c1ccc2c(ccc(C#N)[n+]2[O-])c1 [Compound No. 2-21]	100%	100%	–
O=C(Nc1c(Br)cc(C(F)(C(F)(F)F)C(F)(F)F)cc1OC(F)F)c1ccc2ncccc2c1 [Compound No. 2-152, N-[2-bromo-(1,1,1,2,3,3,3-heptafluoropropan-2-yl)-6-(difluoromethoxy)phenyl]quinoline-6-carboxamide]	–	–	pest or weed control at 500 ppm (Aulacophora femoralis; in Cucumis sativus): 100%; pest or weed control at 100 ppm (Spodoptera litura): 100%
O=C(Nc1c(I)cc(C(F)(C(F)(F)F)C(F)(F)C(F)(F)F)cc1OC(F)F)c1ccc2c(ccc[n+]2[O-])c1 (stereo not drawn) [Compound No. 2-175, N-[2-(difluoromethoxy)-6-iodo-4-(1,1,1,2,3,3,4,4,4-nonafluorobutan-2-yl)phenyl]quinoline-6-carboxamide N-oxide]	–	–	pest or weed control at 500 ppm (Aulacophora femoralis; [1]): 100%; pest or weed control at 100 ppm (Spodoptera litura): 100%
O=C(Nc1c(Cl)cc(C(F)(C(F)(F)F)C(F)(F)F)cc1OC(F)F)c1ccc2ncccc2c1 [Compound No. 2-229, N-[2-chloro-(1,1,1,2,3,3,3-heptafluoropropan-2-yl)-6-(difluoromethoxy)phenyl]quinoline-6-carboxamide]	–	–	pest or weed control at 500 ppm (Aulacophora femoralis; [1]): 100%
